From ChEMBL document CHEMBL4507293 (2021)

Key:
[1] = target: Serine/threonine-protein kinase Nek4 (Homo sapiens) (UniProt P51957); settings: Compound concentration 100.0 nM
[2] = target: GABA-A receptor; anion channel (Rattus norvegicus) (UniProt O09028+P15431+P18506+P18508+P19969+P20236+P23574+P23576+P28471+P28473+P30191+P62813+P63079+P63138+Q91ZM7+Q9ES14); settings: Compound concentration 10.0 uM
[3] = test system: Tyrosine-protein kinase ABL1 (Homo sapiens), P00519 [Q252H]; settings: Compound concentration 100.0 nM
[4] = target: Kappa-type opioid receptor (Homo sapiens) (UniProt P41145); settings: Compound concentration 10.0 uM
[5] = target: Mitogen-activated protein kinase kinase kinase 1 (Homo sapiens) (UniProt Q13233); settings: Compound concentration 100.0 nM
[6] = target: Serine/threonine-protein kinase/endoribonuclease IRE1 (Homo sapiens) (UniProt O75460); settings: Compound concentration 100.0 nM
[7] = target: Dual specificity testis-specific protein kinase 1 (Homo sapiens) (UniProt Q15569); settings: Compound concentration 100.0 nM
[8] = test system: Mast/stem cell growth factor receptor Kit (Homo sapiens), P10721 [V559D,V654A]; settings: Compound concentration 100.0 nM
[9] = target: Vascular endothelial growth factor receptor 3 (Homo sapiens) (UniProt P35916); settings: Compound concentration 100.0 nM
[10] = target: High affinity cGMP-specific 3',5'-cyclic phosphodiesterase 9A (Homo sapiens, UniProt O76083); assay: Biochemical assay (PDE9A)
[11] = target: Phosphatidylinositol 4-kinase beta (Homo sapiens) (UniProt Q9UBF8); settings: Compound concentration 100.0 nM
[12] = target: Tyrosine-protein kinase Srms (Homo sapiens) (UniProt Q9H3Y6); settings: Compound concentration 100.0 nM
[13] = target: Serine/threonine-protein kinase haspin (Homo sapiens) (UniProt Q8TF76); settings: Compound concentration 100.0 nM
[14] = target: Sigma intracellular receptor 2 (Homo sapiens, UniProt Q5BJF2); assay: GPCRScan assay: inhibition of Sigma 2; set-up: radioligand conc. used [nm] 5.0, parental cells HEKT
[15] = target: Dual specificity protein kinase TTK (Homo sapiens) (UniProt P33981); settings: Compound concentration 100.0 nM
[16] = target: T1, Muscarinic acetylcholine receptor M4 (Homo sapiens) (UniProt P08173); settings: Compound concentration 10.0 uM
T1 sequence (whole entry): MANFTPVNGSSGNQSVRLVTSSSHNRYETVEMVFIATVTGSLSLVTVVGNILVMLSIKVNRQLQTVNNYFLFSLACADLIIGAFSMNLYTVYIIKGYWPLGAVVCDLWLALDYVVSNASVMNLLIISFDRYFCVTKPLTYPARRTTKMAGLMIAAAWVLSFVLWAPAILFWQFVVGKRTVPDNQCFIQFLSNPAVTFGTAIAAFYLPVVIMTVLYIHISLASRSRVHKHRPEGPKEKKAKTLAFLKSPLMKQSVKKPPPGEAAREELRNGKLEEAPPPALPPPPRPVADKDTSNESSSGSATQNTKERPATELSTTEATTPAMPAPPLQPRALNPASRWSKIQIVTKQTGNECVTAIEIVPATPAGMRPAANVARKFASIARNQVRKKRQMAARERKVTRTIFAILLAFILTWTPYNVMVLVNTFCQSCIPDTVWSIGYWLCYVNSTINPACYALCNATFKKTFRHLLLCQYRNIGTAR

[17] = target: Cyclin-dependent kinase 8 (Homo sapiens) (UniProt P49336); settings: Compound concentration 100.0 nM
[18] = target: Serine/threonine-protein kinase PAK 2 (Homo sapiens) (UniProt Q13177); settings: Compound concentration 100.0 nM
[19] = target: T2, 5-hydroxytryptamine receptor 2C (Homo sapiens) (UniProt P28335); settings: Compound concentration 10.0 uM
T2 sequence (whole entry): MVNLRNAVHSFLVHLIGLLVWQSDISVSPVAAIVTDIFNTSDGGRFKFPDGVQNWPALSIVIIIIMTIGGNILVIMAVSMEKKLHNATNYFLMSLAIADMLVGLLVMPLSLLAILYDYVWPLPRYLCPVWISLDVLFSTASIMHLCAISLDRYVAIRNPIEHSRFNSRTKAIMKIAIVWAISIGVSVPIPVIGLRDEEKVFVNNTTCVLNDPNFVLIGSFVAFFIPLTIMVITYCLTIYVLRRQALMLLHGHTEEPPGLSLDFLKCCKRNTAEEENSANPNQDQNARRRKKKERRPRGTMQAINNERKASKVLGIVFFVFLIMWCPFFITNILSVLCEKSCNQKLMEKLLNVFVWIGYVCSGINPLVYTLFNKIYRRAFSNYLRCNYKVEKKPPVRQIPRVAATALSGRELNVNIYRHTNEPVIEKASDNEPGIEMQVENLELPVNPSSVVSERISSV

[20] = target: Receptor-interacting serine/threonine-protein kinase 4 (Homo sapiens) (UniProt P57078); settings: Compound concentration 100.0 nM
[21] = target: Tyrosine-protein kinase ITK/TSK (Homo sapiens) (UniProt Q08881); settings: Compound concentration 100.0 nM
[22] = test system: Receptor-type tyrosine-protein kinase FLT3 (Homo sapiens), P36888 [N841I]; settings: Compound concentration 100.0 nM
[23] = target: Atypical kinase COQ8A, mitochondrial (Homo sapiens) (UniProt Q8NI60); settings: Compound concentration 100.0 nM
[24] = target: Cytoplasmic tyrosine-protein kinase BMX (Homo sapiens) (UniProt P51813); settings: Compound concentration 100.0 nM
[25] = target: Serine/threonine-protein kinase 10 (Homo sapiens) (UniProt O94804); settings: Compound concentration 100.0 nM
[26] = target: Dual specificity mitogen-activated protein kinase kinase 3 (Homo sapiens) (UniProt P46734); settings: Compound concentration 100.0 nM
[27] = target: Death-associated protein kinase 3 (Homo sapiens) (UniProt O43293); settings: Compound concentration 100.0 nM
[28] = target: Proto-oncogene tyrosine-protein kinase ROS (Homo sapiens) (UniProt P08922); settings: Compound concentration 100.0 nM
[29] = target: Insulin receptor (Homo sapiens) (UniProt P06213); settings: Compound concentration 100.0 nM
[30] = target: Wee1-like protein kinase (Homo sapiens) (UniProt P30291); settings: Compound concentration 100.0 nM
[31] = target: Protein-tyrosine kinase 2-beta (Homo sapiens) (UniProt Q14289); settings: Compound concentration 100.0 nM

Atypical kinase COQ8A, mitochondrial (Homo sapiens), sequence (Q8NI60 163-647 limits assumed): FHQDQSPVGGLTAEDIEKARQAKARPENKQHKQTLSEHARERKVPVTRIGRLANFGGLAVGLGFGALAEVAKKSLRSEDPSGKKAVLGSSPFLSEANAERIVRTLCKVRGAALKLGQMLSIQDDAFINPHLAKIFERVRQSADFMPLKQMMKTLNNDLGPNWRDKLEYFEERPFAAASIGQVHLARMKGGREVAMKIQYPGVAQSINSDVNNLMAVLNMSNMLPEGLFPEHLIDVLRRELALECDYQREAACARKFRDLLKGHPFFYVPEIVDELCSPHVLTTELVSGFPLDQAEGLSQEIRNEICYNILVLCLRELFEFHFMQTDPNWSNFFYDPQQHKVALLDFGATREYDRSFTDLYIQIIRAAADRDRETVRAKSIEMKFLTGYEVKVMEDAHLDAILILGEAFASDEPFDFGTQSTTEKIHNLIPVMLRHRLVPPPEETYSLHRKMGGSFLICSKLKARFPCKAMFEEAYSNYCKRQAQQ
Cytoplasmic tyrosine-protein kinase BMX (Homo sapiens), sequence (P51813 whole entry): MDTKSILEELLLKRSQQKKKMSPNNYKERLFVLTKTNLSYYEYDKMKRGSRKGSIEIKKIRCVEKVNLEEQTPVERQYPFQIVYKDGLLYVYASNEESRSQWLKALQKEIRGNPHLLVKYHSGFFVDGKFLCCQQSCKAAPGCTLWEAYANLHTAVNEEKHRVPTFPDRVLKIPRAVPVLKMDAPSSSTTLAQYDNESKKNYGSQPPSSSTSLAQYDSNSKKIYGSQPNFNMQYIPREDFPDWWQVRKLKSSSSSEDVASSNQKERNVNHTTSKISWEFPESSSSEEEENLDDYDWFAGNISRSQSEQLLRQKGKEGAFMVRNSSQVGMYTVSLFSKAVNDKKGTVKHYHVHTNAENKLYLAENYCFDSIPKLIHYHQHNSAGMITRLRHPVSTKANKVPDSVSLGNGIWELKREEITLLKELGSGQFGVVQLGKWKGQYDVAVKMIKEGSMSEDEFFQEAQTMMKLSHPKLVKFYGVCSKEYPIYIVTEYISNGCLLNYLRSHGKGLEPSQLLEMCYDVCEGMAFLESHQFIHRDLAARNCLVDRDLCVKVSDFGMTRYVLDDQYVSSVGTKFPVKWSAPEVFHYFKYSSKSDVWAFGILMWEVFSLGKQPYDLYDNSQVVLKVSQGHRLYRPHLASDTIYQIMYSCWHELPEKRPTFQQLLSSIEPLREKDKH
High affinity cGMP-specific 3',5'-cyclic phosphodiesterase 9A, sequence (O76083 whole entry): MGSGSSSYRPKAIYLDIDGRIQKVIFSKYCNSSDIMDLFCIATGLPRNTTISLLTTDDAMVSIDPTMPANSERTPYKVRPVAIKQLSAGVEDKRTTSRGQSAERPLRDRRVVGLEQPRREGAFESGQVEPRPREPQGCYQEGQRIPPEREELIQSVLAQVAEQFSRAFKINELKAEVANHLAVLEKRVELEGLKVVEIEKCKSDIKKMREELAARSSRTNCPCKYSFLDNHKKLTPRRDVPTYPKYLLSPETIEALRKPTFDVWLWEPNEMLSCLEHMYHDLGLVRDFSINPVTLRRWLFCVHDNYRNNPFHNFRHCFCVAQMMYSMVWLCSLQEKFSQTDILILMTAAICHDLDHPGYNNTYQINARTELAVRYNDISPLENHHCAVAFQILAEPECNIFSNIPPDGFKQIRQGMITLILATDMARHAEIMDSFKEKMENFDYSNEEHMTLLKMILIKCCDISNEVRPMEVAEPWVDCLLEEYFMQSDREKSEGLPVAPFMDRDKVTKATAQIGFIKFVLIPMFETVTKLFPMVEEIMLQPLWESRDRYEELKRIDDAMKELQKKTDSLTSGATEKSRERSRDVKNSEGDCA
Death-associated protein kinase 3 (Homo sapiens), sequence (O43293 whole entry, looked up): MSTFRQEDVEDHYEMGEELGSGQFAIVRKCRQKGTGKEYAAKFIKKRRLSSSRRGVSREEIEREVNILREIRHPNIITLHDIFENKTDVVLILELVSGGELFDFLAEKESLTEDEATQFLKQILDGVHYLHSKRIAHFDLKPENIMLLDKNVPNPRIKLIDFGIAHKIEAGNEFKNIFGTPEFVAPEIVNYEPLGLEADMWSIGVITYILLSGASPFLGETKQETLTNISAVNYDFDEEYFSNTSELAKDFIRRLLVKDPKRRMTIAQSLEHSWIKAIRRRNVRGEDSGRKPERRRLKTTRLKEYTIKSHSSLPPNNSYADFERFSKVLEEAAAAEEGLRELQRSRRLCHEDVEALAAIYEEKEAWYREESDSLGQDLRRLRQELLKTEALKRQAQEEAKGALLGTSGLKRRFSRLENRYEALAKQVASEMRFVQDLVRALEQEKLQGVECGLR
Insulin receptor (Homo sapiens), sequence (P06213 28-758 limits assumed): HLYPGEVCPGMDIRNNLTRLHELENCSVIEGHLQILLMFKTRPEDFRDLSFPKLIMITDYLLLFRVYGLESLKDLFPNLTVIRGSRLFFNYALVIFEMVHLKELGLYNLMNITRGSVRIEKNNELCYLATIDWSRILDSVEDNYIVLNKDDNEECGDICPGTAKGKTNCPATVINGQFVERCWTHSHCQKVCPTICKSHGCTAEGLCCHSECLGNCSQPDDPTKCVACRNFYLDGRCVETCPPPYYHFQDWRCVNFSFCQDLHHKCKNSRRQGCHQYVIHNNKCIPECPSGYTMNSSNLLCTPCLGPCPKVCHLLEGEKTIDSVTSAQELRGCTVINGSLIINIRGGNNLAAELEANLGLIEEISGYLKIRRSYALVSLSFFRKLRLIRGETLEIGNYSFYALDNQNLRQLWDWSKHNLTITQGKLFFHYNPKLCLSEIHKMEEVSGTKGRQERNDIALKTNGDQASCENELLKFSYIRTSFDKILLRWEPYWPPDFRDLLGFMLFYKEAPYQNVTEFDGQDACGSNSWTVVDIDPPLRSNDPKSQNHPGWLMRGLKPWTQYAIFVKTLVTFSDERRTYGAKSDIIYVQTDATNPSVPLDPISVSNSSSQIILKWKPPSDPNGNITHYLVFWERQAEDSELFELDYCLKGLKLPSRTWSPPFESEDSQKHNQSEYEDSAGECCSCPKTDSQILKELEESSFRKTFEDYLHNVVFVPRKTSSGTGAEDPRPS
Insulin receptor (Homo sapiens), sequence (P06213 763-1382 limits assumed): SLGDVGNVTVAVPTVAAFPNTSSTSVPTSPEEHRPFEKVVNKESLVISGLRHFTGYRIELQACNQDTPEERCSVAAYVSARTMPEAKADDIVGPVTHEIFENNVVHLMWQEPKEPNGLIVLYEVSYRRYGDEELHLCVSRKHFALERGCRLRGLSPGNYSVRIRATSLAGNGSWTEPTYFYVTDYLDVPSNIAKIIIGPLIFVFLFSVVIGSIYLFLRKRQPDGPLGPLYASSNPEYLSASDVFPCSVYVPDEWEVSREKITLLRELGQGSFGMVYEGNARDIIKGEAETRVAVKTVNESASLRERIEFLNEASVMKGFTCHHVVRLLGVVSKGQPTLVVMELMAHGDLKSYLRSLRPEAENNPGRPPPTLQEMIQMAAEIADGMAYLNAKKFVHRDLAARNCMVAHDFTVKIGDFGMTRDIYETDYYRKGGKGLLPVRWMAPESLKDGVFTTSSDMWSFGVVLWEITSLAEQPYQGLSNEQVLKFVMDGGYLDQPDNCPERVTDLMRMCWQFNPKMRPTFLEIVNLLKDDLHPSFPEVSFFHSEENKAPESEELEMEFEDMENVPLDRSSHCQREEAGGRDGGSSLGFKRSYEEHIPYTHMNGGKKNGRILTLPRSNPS
Phosphatidylinositol 4-kinase beta (Homo sapiens), sequence (Q9UBF8 2-816 limits assumed): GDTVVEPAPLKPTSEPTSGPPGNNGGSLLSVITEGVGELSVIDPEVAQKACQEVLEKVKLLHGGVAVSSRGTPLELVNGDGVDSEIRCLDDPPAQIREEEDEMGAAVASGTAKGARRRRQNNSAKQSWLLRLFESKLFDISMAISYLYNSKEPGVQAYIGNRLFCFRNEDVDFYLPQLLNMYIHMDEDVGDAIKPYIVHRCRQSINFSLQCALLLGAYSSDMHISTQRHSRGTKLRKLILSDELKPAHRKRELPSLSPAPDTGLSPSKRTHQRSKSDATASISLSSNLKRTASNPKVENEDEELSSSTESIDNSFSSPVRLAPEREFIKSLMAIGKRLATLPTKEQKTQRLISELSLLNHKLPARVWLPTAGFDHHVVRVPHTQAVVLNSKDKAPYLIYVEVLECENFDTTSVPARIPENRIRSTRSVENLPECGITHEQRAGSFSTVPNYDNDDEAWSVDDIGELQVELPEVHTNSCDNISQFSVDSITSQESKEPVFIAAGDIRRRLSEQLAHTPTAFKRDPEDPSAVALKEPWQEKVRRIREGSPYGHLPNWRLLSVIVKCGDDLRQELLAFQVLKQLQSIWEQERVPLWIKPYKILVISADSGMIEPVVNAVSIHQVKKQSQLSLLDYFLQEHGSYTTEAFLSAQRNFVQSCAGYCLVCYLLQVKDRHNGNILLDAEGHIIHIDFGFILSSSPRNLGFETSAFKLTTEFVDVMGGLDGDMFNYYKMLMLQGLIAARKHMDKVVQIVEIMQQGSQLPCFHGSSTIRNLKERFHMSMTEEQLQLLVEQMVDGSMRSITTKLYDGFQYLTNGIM
Dual specificity testis-specific protein kinase 1 (Homo sapiens), sequence (Q15569 whole entry, looked up): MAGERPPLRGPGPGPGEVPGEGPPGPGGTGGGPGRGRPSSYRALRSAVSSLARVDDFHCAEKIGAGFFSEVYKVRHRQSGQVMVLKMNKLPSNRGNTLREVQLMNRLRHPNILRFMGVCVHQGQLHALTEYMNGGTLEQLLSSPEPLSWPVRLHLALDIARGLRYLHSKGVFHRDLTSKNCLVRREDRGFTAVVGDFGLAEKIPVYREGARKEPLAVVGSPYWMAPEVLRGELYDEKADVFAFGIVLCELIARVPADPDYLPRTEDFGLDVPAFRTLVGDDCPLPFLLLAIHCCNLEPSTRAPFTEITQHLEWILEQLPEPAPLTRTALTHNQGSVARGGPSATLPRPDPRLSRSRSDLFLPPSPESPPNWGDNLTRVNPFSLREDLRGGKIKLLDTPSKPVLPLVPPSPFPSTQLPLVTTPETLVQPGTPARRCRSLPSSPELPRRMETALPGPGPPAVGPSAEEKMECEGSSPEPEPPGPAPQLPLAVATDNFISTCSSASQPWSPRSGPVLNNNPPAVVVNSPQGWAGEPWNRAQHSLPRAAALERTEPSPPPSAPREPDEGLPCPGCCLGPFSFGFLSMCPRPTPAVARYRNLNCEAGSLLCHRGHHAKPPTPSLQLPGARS

Compound	residual activity [1]	inhibition [2]	residual activity [3]	inhibition [4]	residual activity [5]	residual activity [6]	residual activity [7]	residual activity [8]	residual activity [9]	Ki [10]	residual activity [11]	residual activity [12]	residual activity [13]	Ki [14]	residual activity [15]	inhibition [16]	residual activity [17]	residual activity [18]	inhibition [19]	residual activity [20]	other results
COCCOc1nc(-c2ccc(Cl)nc2)nc2c1CN(C(=O)c1ncn3ccccc13)CC2 [THPP-1]	100%	24.9%	74%	-1.56%	100%	100%	100%	75%	88%	> 50 µM (not active)	100%	100%	100%	3.35 µM	100%	2%	100%	100%	13.3%	100%	residual activity [21]: 100%; residual activity [22]: 100%; residual activity [23]: 100%; residual activity [24]: 100%; residual activity [25]: 100%; residual activity [26]: 93%; residual activity [27]: 100%; residual activity [28]: 100%; residual activity [29]: 76%; residual activity [30]: 100%; residual activity [31]: 100%
CC(C)CC(=O)N1CCc2nc(-c3ccc(Br)cc3)nc(N(C)Cc3ccccc3)c2C1 [THPP-1-NC]	100%	-3.36%	53%	38%	100%	100%	100%	98%	100%	> 54.6 µM (not active)	100%	100%	100%	0.708 µM	100%	3.58%	82%	100%	-6.28%	100%	residual activity [21]: 100%; residual activity [22]: 100%; residual activity [23]: 100%; residual activity [24]: 100%; residual activity [25]: 100%; residual activity [26]: 100%; residual activity [27]: 100%; residual activity [28]: 100%; residual activity [29]: 84%; residual activity [30]: 100%; residual activity [31]: 100%
